# How the values were obtained:
# Assay type in all cases: in vivo, humans
# U.S. adults [1] = assay: NHANES 2005-2010 observational analysis: linear regression of self-reported bowel motion frequency on riboflavin intake
# Description: Data were obtained from NHANES, a representative survey that measures the health and nutritional status of the U.S. non-institutionalized population. Research protocols were reviewed and approved by the National Center for Health Statistics Research Ethics Review Board (protocol #2005-2006). Ethical review of the protocols used in NHANES protocols is conducted annually, with ongoing changes submitted through an amendment process. All participants gave written consent before participation. Information that could potentially identify participants is removed before data is made publicly available.
# For this analysis, data from adults aged 20 years and over in the survey years 2005-2010 were selected. Participants were selected using a complex, multi-stage probability sampling design to produce a representative sample. Demographic information (gender, age, ethnicity, education, poverty-income ratio) was provided by self-report during an interview conducted by a trained interviewer in the participant's home. Questions relating to Bowel Health were administered to adults aged 20 years and older in the mobile examination center by means of a computer-assisted personal interviewing system. Dietary assessment was conducted by means of two 24-hour dietary recalls, the first conducted in-person at the mobile examination center, and the second conducted by telephone 3 to 10 days after the dietary interview but not on the same day of the week. Pregnancy status in women aged 20 to 44 years was determined by self-report; negative responses were confirmed with a urinary pregnancy test. […] For the survey cycles 2007-2010, the total supplemental intake based on the 30 days questionnaire was also used, based on the totals provided in the dataset. Subjects who self-reported inflammatory bowel disease were excluded.
# The Bowel Health questionnaire in survey cycles 2005-2006 and 2007-2008 consisted of six questions: four relate to the assessment of the Fecal Incontinence Severity Index (Rockwood, et al 1999 Dis Colon Rectum 42, 1525-1532) one question requests participants' self-reported weekly bowel motion frequency, and one question was about normal stool type on the Bristol Stool Scale (Lewis et al 1997 Scand J Gastroenterol 32: 920-924). A Fecal Incontinence Intensity Score (FISI) was calculated and binned into four categories using the RANK procedure to obtain approximately equal categories. In the 2009-2010 survey cycle, questions about bowel evacuation urgency, constipation and diarrhea incidence over the previous year, and laxative use over the past 30 days, were added.
# Statistical analyses were performed using SAS version 9.3 (SAS Institute Inc., Cary, N.C., USA). Statistical significance was set at 0.05.
# Gender, ethnicity, education, age (continuous), Poverty-Income Ratio (PIR, continuous) were included in the socio-demographic chunk, and vigorous physical activity over the past 30 days (Y/N), dietary supplement use (Y/N), fiber and moisture intake (continuous), self-report of thyroid problems (Y/N) and use of prescription medication (1 or less vs 2 or more) were included in the diet and health chunk.
# The final linear regression using significant predictors was performed using […] to generate the correct variance estimation that takes the complex survey design into account.
# U.S. adults [2] = assay: NHANES: normalcy of bowel motion frequency (3-21 bowel motions per week) by riboflavin intake quartiles; conditions: as riboflavin intake increases, food and total riboflavin, FIG. 2
# Description: (§1) For this analysis, data from adults aged 20 years and over in the survey years 2005-2010 were selected. Participants were selected using a complex, multi-stage probability sampling design to produce a representative sample. Demographic information (gender, age, ethnicity, education, poverty-income ratio) was provided by self-report during an interview conducted by a trained interviewer in the participant's home. Questions relating to Bowel Health were administered to adults aged 20 years and older in the mobile examination center by means of a computer-assisted personal interviewing system. […] Pregnancy status in women aged 20 to 44 years was determined by self-report; negative responses were confirmed with a urinary pregnancy test. […]
# (§2) The Bowel Health questionnaire in survey cycles 2005-2006 and 2007-2008 consisted of six questions: four relate to the assessment of the Fecal Incontinence Severity Index (Rockwood, et al 1999 Dis Colon Rectum 42, 1525-1532) one question requests participants' self-reported weekly bowel motion frequency, and one question was about normal stool type on the Bristol Stool Scale (Lewis et al 1997 Scand J Gastroenterol 32: 920-924). A Fecal Incontinence Intensity Score (FISI) was calculated and binned into four categories using the RANK procedure to obtain approximately equal categories. […]
# U.S. adults [3] = assay: NHANES: self-reported common stool type (Bristol Stool Scale) by quartiles of riboflavin intake; conditions: as riboflavin intake increases (quartiles), FIG. 1
# Description: as §1, §2
# U.S. adults [4] = assay: NHANES: self-reported urgency to empty the bowels by total riboflavin intake; conditions: highest two quartiles of riboflavin intake, FIG. 4
# Description: as §1, §2
# [5] = Adjusted model (demographics): gender, age, education, Poverty-Income Ratio, ethnicity
# [6] = Adjusted model (diet/health): prescription medications, thyroid problem, fiber and moisture intake
# [7] = Adjusted model (full): all variables
smiles,measurement,setting,value
Cc1cc2nc3c(=O)[nH]c(=O)nc-3n(C[C@H](O)[C@H](O)[C@H](O)CO)c2cc1C [riboflavin],"Beta-coefficient, bowel motion frequency, DS riboflavin intake",U.S. adults [1]; [5],0.0108
same,"Beta-coefficient, bowel motion frequency, Food riboflavin intake",U.S. adults [1]; [5],0.253
same,"Beta-coefficient, bowel motion frequency, Total riboflavin intake",U.S. adults [1]; [5],0.0130
same,"Beta-coefficient, bowel motion frequency, DS riboflavin intake",U.S. adults [1]; [6],0.00807
same,"Beta-coefficient, bowel motion frequency, Food riboflavin intake",U.S. adults [1]; [6],0.0465
same,"Beta-coefficient, bowel motion frequency, Total riboflavin intake",U.S. adults [1]; [6],0.00684
same,"Beta-coefficient, bowel motion frequency, DS riboflavin intake",U.S. adults [1]; [7],0.00895
same,"Beta-coefficient, bowel motion frequency, Food riboflavin intake",U.S. adults [1]; [7],0.0191
same,"Beta-coefficient, bowel motion frequency, Total riboflavin intake",U.S. adults [1]; [7],0.00974
same,"Beta-coefficient, bowel motion frequency, Food riboflavin intake",U.S. adults [1]; Crude model,0.355
same,"Beta-coefficient, bowel motion frequency, Total riboflavin intake",U.S. adults [1]; Crude model,0.0113
same,"Beta-coefficient, bowel motion frequency, DS riboflavin intake","U.S. adults [1]; Crude model, dietary supplements",0.0101
same,Riboflavin intake at which effect on bowel health parameters was seen,U.S. adults [1]; above the median intake,> 2.1 mg/day
same,Relationship between food riboflavin intake and bowel motion frequency,"U.S. adults [1]; after adjusting for socio-demographic, diet and lifestyle co-factors",not significant
same,Relationship between riboflavin intake and bowel motion frequency,"U.S. adults [1]; crude model, intakes from food, dietary supplements and in total","significant, positive relationship"
same,"Relationship between total riboflavin intake and bowel motion frequency, stratified by fiber intake","U.S. adults [1]; dietary fiber intake low, less than the median",no significant relationship
same,Change in bowel motion frequency with riboflavin,U.S. adults [1]; fibre intakes in the upper three quartiles (above 9 g/day),Increases
same,"Relationship between riboflavin intake from dietary supplements and in total, and bowel motion frequency",U.S. adults [1]; fully adjusted model,"significant, positive relationship"
same,Riboflavin intake at which effect on bowel health parameters was especially seen,U.S. adults [1]; highest quartile of riboflavin intake,> 3.1 mg/day
same,"Relationship between total riboflavin intake and bowel motion frequency, stratified by fiber intake",U.S. adults [1]; top two quartiles of dietary fiber intake,only significant
same,Proportion of the population with normal bowel motion patterns,U.S. adults [2],increases
same,Change in stool type 4 (normal defecation),U.S. adults [3],increase
same,Change in stool types 2 (slow transit time) and 5 (soft-fluid stool),U.S. adults [3],reduction
same,"Number of respondents reporting bowel motion urgency occurs ""rarely""",U.S. adults [4],significant increase

# From patent US20220023303A1 (DSM IP Assets B.V., priority 2018, published 2022)
